Test results reported in PMC6872687, “Potential for imaging the high-affinity state of the 5-HT1B receptor: a comparison of three PET radioligands with differing intrinsic activity” (EJNMMI Research, 2019).
Several values for one entry are separate records, joined by “and”; a condition that tells them apart may be missing. Identical values can stand only once. Like-named read-outs stand apart in the source and are kept apart here.

Assays:
5-HT1B receptor [1] = target: T1, 5-HT1B receptor (Homo sapiens, UniProt P28222); assay: GTPγ35S binding assay for EC50 and intrinsic activity (agonist/antagonist efficacy); type: biochemical; conditions: data provided by AstraZeneca; for Agonist effect / Antagonist effect: measured at 10 μM
T1 sequence (P28222 whole entry): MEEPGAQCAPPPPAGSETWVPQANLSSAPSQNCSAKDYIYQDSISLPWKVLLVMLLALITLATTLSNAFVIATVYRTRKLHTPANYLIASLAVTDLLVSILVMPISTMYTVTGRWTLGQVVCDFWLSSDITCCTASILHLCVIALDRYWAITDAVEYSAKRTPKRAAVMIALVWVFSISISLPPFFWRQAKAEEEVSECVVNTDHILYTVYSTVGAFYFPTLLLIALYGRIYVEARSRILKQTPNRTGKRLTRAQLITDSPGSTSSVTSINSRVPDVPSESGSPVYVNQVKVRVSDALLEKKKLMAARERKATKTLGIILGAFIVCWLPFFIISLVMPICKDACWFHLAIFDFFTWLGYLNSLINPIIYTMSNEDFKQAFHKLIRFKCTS
Description: EC50 values and intrinsic activity (antagonist/agonist efficacy) were measured by comparing 5-HT1B receptor ability to bind GTPγ^35S when stimulated with 5-HT. The agonist/antagonist effect (percentage) was measured at 10 μM and EC50 in a range from 10 μM to 170 pM. EC50 was determined as the concentration at half the maximum of the dose-response curve.

[2] = logD (in vitro data, Fig. 1); type: physicochemical; conditions: data provided by AstraZeneca
5-HT1B receptor [3] = system: 5-HT1B receptor; design: method as in PMID 20222157; conditions: baseline PET; results for [11C]2 acquired from Finnema et al.; cited from earlier work
5-HT1B receptor [4] = target: T1, 5-HT1B receptor; assay: 5-HT1B receptor affinity (in vitro data, Fig. 1); type: binding; conditions: data provided by AstraZeneca
5-HT1B receptor [5] = assay: PET displacement by fenfluramine-induced endogenous 5-HT release in NHP brain; type: in vivo, cynomolgus monkey; conditions: for Specific binding (45-123 min) in the occipital cortex: baseline PET
Description: (§1) Three female cynomolgus monkeys were supplied by Astrid Fagraeus Laboratory at the Karolinska Institutet (Solna, Sweden). Anesthesia was initiated via intramuscular injection of ketamine hydrochloride (ca. 10 mg/kg) and after, intubation was maintained by the administration of a mixture of sevoflurane, oxygen, and medical air.
(§2) The NHPs were observed continuously during the days of PET measurements. Body temperature was maintained by Bair Hugger-Model 505 (Arizant Healthcare Inc., MN) and monitored with an esophageal thermometer. Heart rate, blood pressure, respiratory rate, and oxygen saturation were continuously monitored throughout the experiments. Fluid balance was maintained by a continuous infusion of saline. The NHP head was fixed in position throughout PET data acquisition as described previously. PET measurements were conducted using a high-resolution research tomograph (Siemens). Radioactivity in the brain was measured continuously for 123 min after radioligand injection according to a preprogrammed series of 34 frames.
PET measurements using fenfluramine to evaluate the sensitivity of [^11C]1 and [^11C]3 towards endogenous 5-HT release followed an identical procedure for two NHPs (weight 6.8 and 7.0 kg). Each NHP was used in a baseline and a displacement PET measurement with intravenous infusion of fenfluramine over 5 min starting 15 min after injection of the same radioligand as used in the baseline measurement. The dose of fenfluramine was 1 mg/kg (i.v.) for both radioligands and 5 mg/kg (i.v.) for [^11C]3 only. After an unexpected complication, the study was limited to be concluded only at the lower dose level. In summary, results for [^11C]1 were acquired from this study (1 mg/kg of fenfluramine) and from Lindberg et al. (5.0 mg/kg of fenfluramine), [15] results for [^11C]2 were exclusively acquired from Finnema et al., and all results for [^11C]3 were acquired from this study. The experimental procedure in this study was designed to replicate the procedure described by Finnema et al..
(§3) Average PET images were manually co-registered to a T1-weighted brain magnetic resonance (MR) image previously obtained for each monkey. The co-registration parameters were applied to the dynamic PET data. Regions of interest (ROI) were delineated manually for the whole brain, occipital cortex, globus pallidus, caudate nucleus, putamen, ventral striatum (nucleus accumbens), cerebellum, frontal cortex, midbrain, thalamus, and hippocampus. Regional radioactivity was expressed as standardized uptake value (SUV), which was calculated as uptake (becquerels/milliliter)/injected radioactivity (becquerels) × body weight (grams).
(§4) The cerebellum was used as a reference region because this region has negligible density of 5-HT1B receptors. Specific binding to the 5-HT1B receptor was defined as the difference between the total radioactivity concentration in the target brain region and that in the cerebellum, each using the area under the time-radioactivity curve for the scan interval 45–123 min. The binding potential (BPND) was defined as the ratio of specific binding to the radioactivity concentration in the cerebellum, calculated by simplified reference tissue model (SRTM).

5-HT1B receptor [6] = assay: PET baseline and AR-A000002 pretreatment measurement of specific binding in NHP brain; type: in vivo, cynomolgus monkey
Description: as §1, §2
In an initial PET study to evaluate the specific binding of [^11C]3, one NHP (weight 6.9 kg) was used in a baseline measurement. This monkey was also used in a pretreatment paradigm in which the 5-HT1B antagonist AR-A000002 (AZ10419427; 2.0 mg/kg) was intravenously infused over 6 min starting at 30 min before radioligand injection.
as §3, §4

[7] = fenfluramine 1.0 mg/kg i.v. 15 min after radioligand, 45-123 min, individual monkeys
[8] = fenfluramine 1.0 mg/kg i.v., 45-123 min
[9] = fenfluramine 1.0 mg/kg i.v., individual monkeys
[10] = AR-A000002 2.0 mg/kg i.v. pretreatment vs baseline
[11] = after pretreatment with AR-A000002 2.0 mg/kg i.v.
[12] = fenfluramine 5.0 mg/kg, 45-123 min

| Agonist effect (5-HT1B receptor [1]) [%] | Antagonist effect (5-HT1B receptor [1]) [%] | logD [2] | Ki (5-HT1B receptor [4]) [pM] | SMILES | Specific binding (45-123 min) in the occipital cortex (5-HT1B receptor [5]) | Decrease in specific binding, occipital cortex (5-HT1B receptor [5]; [7]) | Displacement (decrease in specific binding), globus pallidus (5-HT1B receptor [5]; [9]) | other results |
| --- | --- | --- | --- | --- | --- | --- | --- | --- |
| 53.2 | 48 | 1.3 | 400 | Cc1ccc(N2CCN([11CH3])CC2)c2oc(C(=O)Nc3ccc(N4CCOCC4)cc3)cc(=O)c12 [[^11C]2] |  |  |  | Specific binding (45-123 min) in the occipital cortex (5-HT1B receptor [3]): 1.9 |
|  | 190 | 2.3 | 130 | [11CH3]N1CCN(c2cc(F)cc3c(=O)cc(C(=O)Nc4ccc(N5CCOCC5)c(F)c4)oc23)CC1 [[^11C]1] | 3.2 | 19% | 3% and 9% | Reduction in specific binding, midbrain (5-HT1B receptor [5]; [8]): 2%; Reduction in specific binding, thalamus (5-HT1B receptor [5]; [8]): 33% |
| 77.1 | 18 | 1.5 | 600 | [11CH3]N1CCN(c2cccc3c2O[C@H](C(=O)Nc2ccc(N4CCOCC4)cc2)CC3)CC1 [[^11C]3] | 0.9 | 16% and 27% | 4% and 11% | Reduction of BPND, globus pallidus (5-HT1B receptor [6]; [10]): 52%; Reduction of BPND, occipital cortex (5-HT1B receptor [6]; [10]): 90%; BPND, globus pallidus (5-HT1B receptor [6]; [11]): 0.23; BPND, occipital cortex (5-HT1B receptor [6]; [11]): 0.07; BPND (SRTM), globus pallidus (5-HT1B receptor [6]; baseline): 0.48; BPND (SRTM), occipital cortex (5-HT1B receptor [6]; baseline): 0.7; Maximum radioactivity in the whole brain (5-HT1B receptor [6]; baseline PET, i.v., one monkey): 2.5 SUV; Time of maximum whole brain radioactivity (5-HT1B receptor [6]; baseline PET, i.v., one monkey): 10 min; EC50 (5-HT1B receptor [1]; range 10 μM to 170 pM): 970 pM; Decrease in specific binding, occipital cortex (5-HT1B receptor [5]; fenfluramine 5.0 mg/kg i.v. 15 min after radioligand, 45-123 min, individual monkeys): 61% and 62%; Reduction in specific binding, frontal cortex (5-HT1B receptor [5]; [12]): 68%; Reduction in specific binding, hippocampus (5-HT1B receptor [5]; [12]): 34%; Displacement, globus pallidus (5-HT1B receptor [5]; fenfluramine 5.0 mg/kg, individual monkeys): 35% and 49% |
